Measurements reported in ChEMBL document CHEMBL1201862, “PubChem BioAssay data set” (2004).
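Step 1: Grow cells in 96-well plates. Step 2: Expose to compound for 48 hours at 5 concentrations. Step 3: Interpolate endpoints linearly; if unreached, use highest concentration. At the GI50, growth is halved.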 Calls of active or inactive are those of the source. Rule as the data show it: active = GI50 up to about 1.1 µM and inactive = higher.

Key:
Test in all cases: NCI tumour cell line growth inhibition, 48 h
NCI-H23 = test system: NCI-H23
SNB-19 = test system: SNB-19
IGROV-1 = test system: IGROV-1
SF-295 = test system: SF-295
A549 = test system: A549
HOP-62 = test system: HOP-62
HL-60 = test system: HL-60
NCI-H460 = test system: NCI-H460
Malme-3M = test system: Malme-3M
SW-620 = test system: SW-620
SN12C = test system: SN12C
NCI-H522 = test system: NCI-H522
SNB-75 = test system: SNB-75
M14 = test system: M14
CAKI-1 = test system: CAKI-1
HCC 2998 = test system: HCC 2998

Measured: GI50

CCOC(=O)c1ccc(C)c(/N=N/N(C)C)c1
inactive: NCI-H23 > 100 µM | SNB-19 86.7 µM | IGROV-1 > 100 µM | SF-295 > 100 µM | A549 > 100 µM | HOP-62 > 100 µM | HL-60 > 100 µM | NCI-H460 > 100 µM | Malme-3M > 100 µM | SW-620 > 100 µM | SN12C > 100 µM | NCI-H522 > 100 µM | SNB-75 > 100 µM | M14 > 100 µM | CAKI-1 > 100 µM | HCC 2998 > 100 µM

CCC(C)OC(=O)C1C2CCC(O2)C1C(=O)O (stereo unspecified)
inactive: NCI-H23 > 100 µM | SNB-19 > 100 µM | IGROV-1 > 100 µM | SF-295 > 100 µM | A549 > 60.7 µM | HOP-62 > 100 µM | HL-60 > 100 µM | NCI-H460 24.7 µM | Malme-3M > 100 µM | SN12C > 100 µM | NCI-H522 > 100 µM | SNB-75 > 100 µM | M14 > 100 µM | CAKI-1 > 100 µM | HCC 2998 > 100 µM

CC(C)NC(=O)OCc1c(CO)c2c(n1C)-c1ccccc1CC2
inactive: NCI-H23 26.7 µM | SNB-19 42.2 µM | IGROV-1 27.5 µM | SF-295 86.9 µM | A549 40.6 µM | HOP-62 > 58.3 µM | HL-60 16.4 µM | NCI-H460 25.5 µM | Malme-3M 23.9 µM | SW-620 20 µM | SN12C 24.3 µM | NCI-H522 16.7 µM | SNB-75 33 µM | CAKI-1 15.8 µM | HCC 2998 19.9 µM

Cc1ccc(/C=C/C(=O)c2cccc3ccccc23)cc1
inactive: NCI-H23 > 10 µM | SNB-19 16.1 µM | IGROV-1 > 10 µM | SF-295 17.7 µM | A549 16.7 µM | HOP-62 20.7 µM | HL-60 7.18 µM | NCI-H460 15.2 µM | Malme-3M 15.3 µM | SW-620 13.5 µM | SN12C 14.3 µM | NCI-H522 17.1 µM | SNB-75 19.1 µM | M14 19.3 µM | CAKI-1 16.4 µM | HCC 2998 22.9 µM

CCCCCC(=O)C(C)C1=Nc2nnc(CCCCCCCc3nnc4n3C(=O)C(C(C)C(=O)CCCCC)=N4)n2C1=O (stereo unspecified)
inactive: NCI-H23 > 100 µM | SNB-19 > 100 µM | IGROV-1 > 100 µM | SF-295 > 100 µM | A549 > 100 µM | HOP-62 > 100 µM | HL-60 > 100 µM | NCI-H460 > 100 µM | Malme-3M > 100 µM | SW-620 > 100 µM | SN12C > 100 µM | NCI-H522 > 100 µM | SNB-75 > 100 µM | M14 > 100 µM | CAKI-1 > 100 µM | HCC 2998 > 100 µM

CN(C(=O)C12C3C4C5C3C1(C(=O)C13C6C7C8C6C1C8C73)C5C42)C(C)(C)C (stereo unspecified)
inactive: NCI-H23 > 50 µM | SNB-19 > 50 µM | IGROV-1 > 50 µM | SF-295 > 50 µM | A549 > 30.1 µM | HOP-62 > 50 µM | HL-60 > 19.3 µM | NCI-H460 > 32.7 µM | Malme-3M > 50 µM | SW-620 > 20.9 µM | SN12C > 50 µM | NCI-H522 > 32.4 µM | SNB-75 > 33 µM | M14 > 50 µM | CAKI-1 > 50 µM | HCC 2998 > 50 µM

Clc1ccc(C2=Nc3ccccc3SC(c3ccc(Cl)c(Cl)c3)C2)c(Cl)c1 (stereo unspecified)
inactive: NCI-H23 15.3 µM | SNB-19 20.7 µM | IGROV-1 14.7 µM | SF-295 12.4 µM | A549 21 µM | HOP-62 12.6 µM | HL-60 8.45 µM | NCI-H460 17.3 µM | Malme-3M 16.1 µM | SW-620 6.9 µM | SN12C 17.2 µM | NCI-H522 13.5 µM | SNB-75 15.4 µM | M14 16 µM | CAKI-1 13.5 µM | HCC 2998 14.6 µM

C[n+]1c2ccccc2c(NC(CS)C(=O)O)c2ccccc21 (stereo unspecified)
inactive: NCI-H23 32 µM | SNB-19 40.6 µM | IGROV-1 25.4 µM | SF-295 19.9 µM | A549 22.6 µM | HOP-62 30.3 µM | HL-60 17.6 µM | NCI-H460 29.8 µM | Malme-3M 24.2 µM | SW-620 39.3 µM | SN12C 52 µM | NCI-H522 20.3 µM | SNB-75 24.2 µM | M14 27.5 µM | CAKI-1 28.5 µM | HCC 2998 32.9 µM

CC1(C)C(=NNC(=O)C[N+](C)(C)C)C(C)(C)C1=NNC(=O)C[N+](C)(C)C
inactive: NCI-H23 > 100 µM | SNB-19 > 100 µM | IGROV-1 > 100 µM | SF-295 > 100 µM | A549 > 100 µM | HOP-62 > 100 µM | HL-60 > 100 µM | NCI-H460 > 100 µM | Malme-3M > 100 µM | SN12C > 100 µM | NCI-H522 82.4 µM | SNB-75 > 100 µM | M14 > 100 µM | CAKI-1 > 100 µM | HCC 2998 > 100 µM
